“Also recorded” adds a separate entry of the source.
Key:
[1] = test system: SCC-25 squamous cell skin cancer cell line; assay: MTS cell viability after pretreatment and oxidative stress, SCC skin cancer cells; assay type: cell-based, human; details: 500 μM sulindac 24 hr pretreatment, then TBHP 2 hr (FIG. 1)
Procedure: (§1) SCC-25 is a human squamous cell carcinoma cell line developed by J G Rheinwald [Rheinwald, 1981]. […] The cells were maintained in minimum essential medium (Eagle) supplemented with 2 mM L-glutamine, Earle's BSS containing 1.5 g/L sodium bicarbonate, 0.1 mM non-essential amino acids, 1.0 mM sodium pyruvate and 10% fetal bovine serum.
The experimental approach was to pretreat SCC cells with sulindac for 24 hr prior to exposure to TBHP for 2 hr. Sulindac (Sigma; S-8139) was freshly prepared as a 1M stock solution in 1M Tris.Cl, pH 8.0. SCC cells were suspended in culture medium containing 10% fetal bovine serum at a cell density of 6×10^5 cells/ml. Cell suspensions containing 500 μM sulindac or no sulindac (Control) were plated in 96 well microtiter plates with a total of 6×10^4 cells per well. The plates were incubated for 24 hr at 37° C. in a 5% CO2 incubator. The culture medium was then removed and the cells washed once with fresh culture medium without serum. After removal of the wash solution, fresh culture medium without serum that contained the indicated final concentration of TBHP was added to the cells for 2 hrs. Serum was omitted from the medium during the two-hour exposure to TBHP since TBHP may be rapidly depleted in the presence of serum.

[2] = test system: RKO colon cancer cell line; assay: MTS cell viability after pretreatment and oxidative stress, RKO colon cancer cells; assay type: cell-based, human; details: 500 μM sulindac 24 hr pretreatment, then TBHP 2 hr (FIG. 4)
Procedure: as §1, with “RKO” for “SCC-25”, “colon” for “squamous cell”, “Michael Brattain [Brattain, 1984].” for “J G Rheinwald [Rheinwald, 1981].”
Experiments were performed with the RKO colon cancer cells that were pretreated with 500 μM sulindac using TBHP.

[3] = test system: WM-266-4 Melanoma skin cell line; assay: MTS cell viability after pretreatment and oxidative stress, melanoma cells; assay type: cell-based, human; details: 500 μM sulindac 24 hr pretreatment, then TBHP 2 hr (FIG. 8)
[4] = test system: normal human epidermal keratinocytes; assay: Cell viability after sulindac pretreatment and oxidative stress, normal keratinocytes; assay type: cell-based
Procedure: Experiments using similar methods were performed with primary human neonatal foreskin epidermal keratinocytes. These cells were of low-passage and purified using previously accepted protocols (provided by J. Li, University of Miami, Fl.). Cells were grown in 50% Keratinocyte-SFM media [Gibco-Invitrogen (Catalog #17005-042) supplemented with human recombinant Epidermal Growth Factor 1-53 (EGF 1-53) and Bovine Pituitary Extract (BPE)] with 50% EpiLife medium [Cascade Biologics (Catalog #Epi-500-Ca)] supplemented with purified bovine serum albumin, purified bovine transferrin, hydrocortisone, recombinant human insulin-like growth factor type-1 (rhIGF-1), prostaglandin E2 (PGE2), and recombinant human epidermal growth factor (rhEGF).
Normal human epidermal keratinocyte cells were incubated for 24 hr in the presence or absence of 500 μM sulindac. The medium was removed and the cells washed once with fresh medium followed by addition of medium containing the indicated concentration of (a) TBHP or (b) arsenic trioxide. After a 2 hr incubation with TBHP or a 24-hour incubation with arsenic trioxide at 37° C., the cells were assayed for viability as described.

[5] = test system: CCD-18Co normal human colon cell line; assay: MTS cell viability after sulindac pretreatment and TBHP, normal colon cells; assay type: cell-based; details: 500 μM sulindac 24 hr, then TBHP 2 hr (FIG. 11)
Procedure: (§2) The cells were maintained in minimum essential medium (Eagle) supplemented with 2 mM L-glutamine, Earle's BSS containing 1.5 g/L sodium bicarbonate, 0.1 mM non-essential amino acids, 1.0 mM sodium pyruvate and 10% fetal bovine serum.

[6] = test system: MRC-5 normal human lung cell line; assay: MTS cell viability after sulindac pretreatment and TBHP, normal lung cells; assay type: cell-based; details: 500 μM sulindac 24 hr, then TBHP 2 hr (FIG. 12)
Procedure: as §2

[7] = test system: Primary neonatal rat cardiac myocytes; assay: Killing by peroxide after sulindac, normal cardiac cells; assay type: cell-based; details: sulindac followed by peroxide (hydrogen peroxide and TBHP)
Excerpt: (§3) Primary neonatal rat cardiac myocytes and ARPE-19, a human retinal pigment epithelial cell line that is not fully transformed, were used in similar experiments with sulindac followed by peroxide.

[8] = test system: ARPE-19, a human retinal pigment epithelial cell line; assay: Killing by peroxide after sulindac, retinal cells; assay type: cell-based; details: sulindac followed by peroxide (hydrogen peroxide and TBHP)
Excerpt: as §3

[9] = test system: normal cells; assay: Constant non-toxic TBHP with escalating sulindac (FIG. 16), normal cells; assay type: cell-based; details: escalating sulindac 500 μM-1500 μM
[10] = test system: cancer cells; assay: Constant non-toxic TBHP with escalating sulindac (FIG. 16), cancer cells; assay type: cell-based; details: escalating sulindac 500 μM-1500 μM
[11] = test system: Lung cancer cells; assay: Intracellular ROS levels, lung cancer cells; assay type: cell-based; details: combination of sulindac and TBHP vs either treatment alone
[12] = test system: Normal lung cells; assay: Intracellular ROS levels, normal lung cells; assay type: cell-based; details: combination of sulindac and TBHP
[13] = Time course of sulindac pre-incubation before addition of the oxidant; assay type: cell-based
Procedure: Sulindac was pre-incubated for various times prior to the addition of the oxidant. […] There was no difference in the results with longer time courses such as 48-72 hours. After the pre-incubation with sulindac, the cells were washed and the oxidant was added with or without sulindac.

[14] = test system: SCC-25 squamous cell skin cancer cell line; assay: MTS cell viability after pretreatment and oxidative stress, SCC skin cancer cells; assay type: cell-based, human; details: sulindac alone, concentrations below 1 mM, MTS assay
[15] = test system: Normal HEK skin cells (human neonatal epidermal keratinocytes); assay: Intracellular ROS by indicator dye fluorescence, normal HEK skin cells
Procedure: Experimental conditions: Normal HEK skin cells plated onto 6-well plates at cell density of 60-70% confluence. Sulindac (0.5 mM)×24 hours (cell density remained about the same) followed by TBHP×2 hours followed by ROS indicator dye (5 μM)×1 hour (Table 1).
Human neonatal epidermal keratinocytes were plated into 6-well plates at a cell density of 60-70% confluence. The cultures were pretreated with sulindac (500 uM) for 34 hours followed by the addition of different concentrations of TBHP for 2 hours. During this period of time, the cell density in the 6-well plates remained the same (there was no increase in cell proliferation). This was followed by the addition of the ROS indicator dye.

[16] = test system: SCC skin cancer cells; assay: Intracellular ROS by indicator dye fluorescence, SCC skin cancer cells
Procedure: SCC skin cancer cells were plated onto 6-well plates at a cell density of 50-60% confluence. The cultures were pretreated with sulindac (500 uM) for 24 hours followed by the addition of TBHP (100 uM) for two hours. During this period of time, the cell density in the 6-well plates increased to 80-90% confluent.

[17] = test system: precancerous growths and/or BCC's; assay: Topical sulindac gel followed by hydrogen peroxide solution in patients; details: applied alone to the skin condition
[18] = test system: lung carcinoma cell line designated A549; assay: MTS cell viability after pretreatment and oxidative stress, lung cancer cells
Procedure: Cell viability was determined by the [sequence] 96®-Aqueous One Cell Proliferation Assay (Promega) according to the manufacturer's instructions. The assay utilizes a novel tetrazolium compound (3-(4,5-dimethylthiazol-2-yl)-5-(3-carboxymethoxyphenyl)-2-(4-sulfophenyl)-2H-tetrazolium; MTS) and an electron-coupling reagent (phenazine ethosulfate; PES). Metabolically active cells convert the MTS to a water-soluble formazan by the action of cellular dehydrogenases. The amount of formazan produced is measured by absorbance at 490 nm using a colorimetric microtiter plate reader (BIORAD; Model 2550). Absorbance is directly proportional to the number of viable cells.
Experiments using similar methods were performed with a lung carcinoma cell line designated A549. […] Cells were grown in Ham's F12K medium supplemented with final concentrations of 2 mM L-glutamine, 1.6 g/L sodium bicarbonate and 10% fetal bovine serum. Cultures were maintained between 6×10^3-6×10^4 cells/cm^2 in standard tissue culture flasks. The protocol for pretreatment of cells with 500 μM sulindac followed by a two hour exposure to various concentrations of TBHP was the same as that described for the RKO colon cancer cells.
Following a 24 hr pretreatment with 500 μM sulindac, the cells were washed once to remove the excess sulindac before exposure to TBHP for 2 hr.

## CC1=C(CC(=O)O)c2cc(F)ccc2/C1=C\c1ccc([S+](C)[O-])cc1 (racemic) [sulindac, Sulindac]
[1]
  killing of SCC carcinoma cells by TBHP: enhanced the killing
[2]
  killing of RKO carcinoma cells by TBHP: enhanced the killing
[3]
  killing of Melanoma cells by TBHP: enhanced the killing
[4]; 500 μM sulindac 24 hr, then TBHP 2 hr (FIG. 10A)
  viability of normal human epidermal keratinocytes, TBHP: no significant effect
[4]; 500 μM sulindac 24 hr, then arsenic trioxide 24 hr (FIG. 10B)
  viability of normal human epidermal keratinocytes, arsenic trioxide: no significant effect
[4]; in combination with sulindac, effect lost above 400 μM TBHP
  TBHP concentrations with protective effect (enhanced resistance to oxidative stress): 50 to 400 µM
[5]
  effect on oxidative stress by TBHP, normal colon cells: provided protection from oxidative stress
[6]
  effect on oxidative stress by TBHP, normal lung cells: provided protection from oxidative stress
[7]
  killing of normal cardiac cells by peroxide: no enhanced killing
[8]
  killing of retinal cells by peroxide: no enhanced killing
[9]
  effect on normal cells: protective effect
[10]
  effect on cancer cells: enhanced killing
[11]
  intracellular ROS levels, lung cancer cells: significantly higher levels of ROS
[12]
  intracellular ROS levels, normal lung cells: lower levels of ROS
[13]
  minimum pre-incubation time with sulindac to see an effect: ≥ 6 h
  pre-incubation time with sulindac giving optimum effects: 18 to 24 h
[14]
  toxicity of sulindac: effect on cell viability: no detectable effect on cell viability
[15]; Table 1, Sul alone, 0.5 mM 24 hours
  % Cells with ROS Uptake by Fluorescence: 2%
[15]; Table 4, Sul 500 uM alone
  % Cells containing ROS: 2%
[15]; sulindac combined with TBHP vs sulindac or TBHP alone
  level of ROS uptake in normal HEK cells when combined with TBHP: no significant effect
[16]; Table 2, Sul 0.5 mM 24 hours and/or TBHP 100 μM 2 hours
  % Cells with ROS Uptake by Fluorescence: 3%
[16]; Table 3, Sul 500 μM 24 hours and/or TBHP 100 μM 2 hours
  % Cells containing ROS: 3%
[16]; compared to untreated controls
  number of spindle cells in the culture: tends to increase the number of spindle cells
[16]; sulindac 0.5 mM 24 hours then TBHP 100 μM 2 hours
  ROS uptake in SCC skin cancer cells, sulindac in combination with TBHP: geometrically enhances the levels of ROS uptake
[16]; sulindac 500 uM or TBHP 100 uM alone
  ROS levels in SCC skin cancer cells, agent alone: enhances the levels of ROS uptake; also recorded: enhanced the ROS levels
[17]
  effect on the precancerous or cancerous growth when applied alone: no effect
[18]; 500 μM sulindac 24 hr pretreatment, then TBHP 2 hr (FIG. 6)
  cell viability of lung cancer cells after exposure to TBHP: marked decrease in cell viability
[18]; 500 μM sulindac pretreatment (FIG. 7)
  sensitivity of lung cancer cells to killing by H2O2: differentially sensitive to killing
[18]; 1.5-2.0 mM TBHP, 2 hr, 500 μM sulindac pretreatment
  viability of cells pretreated with sulindac: at background levels
[18]; FIG. 15, 500 μM sulindac, 250 μM sulindac sulfone
  killing effect in all cancer cell studies: most potent killing effect
[18]; sulindac-treated vs untreated cells
  H2O2 range in which difference in viability is highly significant (P<0.001): 2.5 to 5.0 mM
